{"source": "patent US20250262167A1", "about": "“COMPOUNDS, TARGETS AND PATHWAYS FOR MACROPHAGE MODULATION” (Massachusetts Institute of Technology, priority 2020, published 2025)", "key": {"[1]": {"test_system": "M0 macrophages (hMDMs)", "assay": "Dosage response of cell shape change on M0 macrophages", "type": "cell-based, human", "settings": "M0 macrophages"}, "[2]": {"test_system": "mouse bone marrow macrophages (BMMs)", "assay": "Development and function of TAM/M2-like macrophages in vitro (qPCR, flow cytometry)", "type": "cell-based", "settings": "mouse BMMs, induced by IL4/IL13, 24 hours", "protocol": "DEGs were identified by edgeR at P<0.05 with at least 2 fold-change. Data for genes that were not classified as differentially expressed are plotted in black. […] Mouse BMMs were cultured in normal medium with or without 2.5 μM thiostrepton for 24 hrs (group 1), or cultured in B16F10 tumor cell conditioned medium (CM) with or without 2.5 μM thiostrepton for 24 hrs (group 2), or cultured with B16F10 tumor cell CM for 24 hrs first and then treated with 2.5 μM thiostrepton for another 24 hrs (group 3). The transcript levels of the indicated genes were quantified by qPCR. Data were summarized from two independent experiments. […] Mouse BMMs were treated with thiostrepton for 24 hrs. Untreated and treated macrophages were co-cultured with equal number of B16F10 melanoma cells for 12 hrs. The number of tumor cells were quantified by flow cytometry after subtracting macrophages from total number of cells. Data were summarized from three independent experiments. ** P<0.01 by T-test.\nExpression of MHCII, CD80, iNOS, Arg1 and CD206 were quantified by flow cytometry. Shown are representative staining profiles of treated (red) and untreated (dark) TAMs from two independent experiments. […] Alternatively, mouse BMMs were polarized with IL-4/IL-13 (group 3) or lactic acid (group 5) for 24 hrs first and then either not treated or treated with […] thiostrepton for another 24 hrs. The transcript levels of the indicated genes were quantified by qPCR. Data are summarized from two independent experiments.\nMouse BMMs were not treated or treated with […] thiostrepton for 24 hours in normal medium (group 1) or in the presence of IL4/IL13 (group 2), or mouse BMMs were polarized with IL4/IL13 for 24 hours and then either not treated or treated with […] thiostrepton for 24 hours (group 3). RNA was isolated and the transcript levels of the indicated genes were quantified by PCR. Data, shown as mean±s.d., were summarized from two independent experiments. * P<0.05 and ** P<0.01 by T-test. […] Data are shown as mean±s.e.m. FIGS. 19C-19D show flow cytometry analysis of TAM (F4/80^+CD11b^+Ly6C^−Ly6G^−), inflammatory monocytes (F4/80′^intCD11b^+Ly6C^+Ly6G^−) and monocytes (F4/80^−CD11b^+Ly6C^+Ly6G^+) in the tumors of mice treated with DMSO, TA99, cucurbitacin I, and cucurbitacin I plus TA99 18 days after tumor engraftment. Shown are representative F4/80 versus CD11b staining profiles gating on CD45+ cells and MHCII histograms gating on macrophages from c.\nMouse bone marrow-derived macrophages (mBMM) were prepared as described previously^54. Briefly, fresh bone marrow cells were isolated from B6 mice. Cells were plated into 6-well plate with 1×10^6/mL in complete RPMI with 2-mercaptoethanol and cultured for 6 days with fresh medium change every 2 days. mBMMs were differentiated to resemble TAMs in the presence of 10 ng/mL mIL-4 and mIL-13 (Peprotech) or 25 mM lactate acid for 24 hrs or tumor conditioned medium (CM). To prepare CM, 70% confluent B16F10 cultured were replaced with fresh medium and the tumor medium was collected and filtered ([…]) 24 hrs later. The mixture of 3 volumes of tumor medium with 1 volume of complete RPMI for mBMM serves as the CM. Expression of Arg, Fizz1 and Vegfa were quantified by qPCR to assess the development of TAMs. Other genes of Tnf, Il1b, Nos2, Cxcl2, Ccl5, Ym1 and Tgfb serve as macrophage activating markers. To assay the tumor growth inhibition, mBMMs (10,000 cells per well in 96 well plate) were treated with thiostrepton for 24 hrs and then cocultured with equal number of B16 melanoma cells in fresh complete RPMI for 12 hrs. The conditioned medium treated or not treated with thiostrepton were collected and filtered. The numbers of B16 melanoma cells were cultured for 12 hrs with conditioned medium or conditioned medium heated at 95° C. for 5 min. Tumor cells were quantified by flow cytometry to determine the macrophage-dependent killing function. […]"}, "[3]": {"test_system": "subcutaneous B16F10 tumors", "assay": "B16F10 melanoma model in B6 mice", "type": "in vivo, mouse", "settings": "i.p. 1 mg/kg"}, "[4]": {"test_system": "hMDMs differentiated into M2 by IL-4 plus IL-13", "assay": "Reprogramming screen and dosage response on M2-like differentiated macrophages;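 as to all read-outs here: human monocyte-derived macrophages held 24 h in 5 ng/mL IL-4 plus IL-13 before 24 h compound exposure, with cell shape measured from images in 384-well plates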"}, "[5]": {"test_system": "ImKCs (immortalized line of mouse Kupffer cells)", "assay": "Seahorse ECAR/OCR (glycolysis, OxPhos) in ImKCs", "type": "cell-based", "settings": "ImKCs, S1P 3 mM, 24 hrs", "protocol": "Shown are representative data of three independent experiments. […] Data are presented as the mean±sd (n=4).\nFIGS. 21A-21I show DPI stimulates glycolysis through GPR3 and β-arrestin2. FIGS. 21A-21B show DPI-stimulated glycolysis is independent of the NOX activity. […] The mean fluorescence intensity (MFI) of 2-NBDG in cells was measured by flow cytometry and normalized to DMSO controls of wildtype BMDMs. Data are presented as the mean±sd (n=3). […] ImKCs were transfected with siRNA specific for Gpr3 or a scramble siRNA as control. […] Data are presented as the mean±sd (n=4). […] Data are presented as the mean±sd (n=12). […] Abbr2^−/− ImKC were constructed by CRISPR-Cas9-mediated gene editing. […] Data are presented as the mean±sd (n=4). […] ImKCs were transfected with Abbr2-GFP fusion gene and stimulated with DMSO, DPI (50 nM), or S1P (3 mM). The GFP signal was captured with a TIRF microscope at indicated time points. Shown are representative data of GFP signal at 0 min and 10 min, and merged signal from three independent experiments.\nSpecific parameters for glycolytic capacity and glycolytic reserve were calculated and summarized based on two independent experiments. […] The GFP signal was captured with a TIRF microscope at indicated time points. Shown are representative data of GFP signal at 0 min and 10 min, and the merged signal from three independent experiments.\nOCR and ECAR were measured in isolated tissues or cultured ImKCs using the Seahorse XFe Extracellular Flux Analyzer (Agilent). For tissue respiration assays, 1.0 mg adipose tissue was dissected from inguinal WAT depots by using a surgical biopsy instrument (Integra Miltex Standard Biopsy Punches, Thermo Fisher) and placed into XF96 Islet Capture Microplates and pre-incubated with XF assay medium with pH value at 7.4. XF assay medium supplemented with 1 mM sodium pyruvate, 2 mM GlutaMax™-I, and 25 mM glucose. Isolated MDMs or Kupffer cells were subjected to a mitochondrial stress test by adding oligomycin (2 μM) followed by carbonyl cyanide 4-(trifluoromethoxy), phenylhydrazone (FCCP, 5 μM), and antimycin (1 μM). For glucose stress assay and ECAR measurement, XF assay medium was supplemented only with GlutaMax™-I. Tissue or cells were subjected to a glucose stress test by adding highly concentrated glucose (for tissue, 25 mM; for cells, 10 mM), followed by adding oligomycin (5 μM), FCCP (5 μM), and 2-DG (50 mM). Cells were seeded in culture dishes, and the medium was changed after 6 hours with serum-free DMEM. Cells were incubated for 12-16 hours, and the culture medium was then collected for measurement of glucose and lactate concentrations. Glucose levels were determined using a glucose (GO) assay kit (Sigma). Glucose consumption was the difference in glucose concentration when compared with DMEM. Lactate levels were determined using a lactate assay kit (Eton Bioscience).\nDPI is an agonist of GPR3 and an inhibitor of […] oxidase (NOX). We first determined the requirement of NOX in DPI-stimulated glycolysis.\nTo determine the requirement of GPR3, we knocked down GPR3 by siRNA (siGpr3) in ImKCs.\nβ-arrestin2, encoded by Arrb2, has been reported to bind to GPR3 and is required for GPR3 signaling. To investigate the requirement of 0-arrestin2 in DPI-stimulated glycolysis, we constructed Arrb2^−/− ImKCs using CRISPR-Cas9 mediated gene editing (FIG. 28F)."}, "[6]": {"test_system": "human monocyte-derived macrophages (hMDMs)", "assay": "High throughput phenotypic screen of macrophage activation (cell shape, Z-score);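 also: phalloidin and DAPI stained hMDMs imaged by high-content microscopy, cell eccentricity compared with DMSO control by T-test, round morphology scored negative, elongated positive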", "type": "cell-based", "settings": "known M1-/M2-activating stimuli"}, "[7]": {"test_system": "hMDMs", "assay": "Flow cytometry of M1 markers (CD80, CD86) and M2 markers (CD206, CD163) in hMDMs", "type": "cell-based, human", "settings": "24 hrs", "protocol": "FIGS. 7A-7B show morphology and phenotypes of activated macrophages. […] The resulting macrophages were polarized to M1 by IFNγ or M2 by IL4. Then, M1 macrophages were treated with M2-type compound bosutinib ([…]) for 24 hrs, and M2 macrophages were treated with M1-type compound thiostrepton ([…]) for 24 hrs. F-actin was stained and images were acquired by fluorescent microscopy with 60× objective. Cell nuclei are stained with DAPI. Representative data were shown from two independent experiments. […] Shown are the representative staining profiles from three independent experiments. The numbers show mean fluorescent intensity (MFI)+/−standard error of the mean (SEM) for n=3 samples per group.\nFIGS. 9A-9C show comparison of the differentially expressed genes induced by selected compounds (FIG. 9A), ligands for novel pathways (FIG. 9B), and controls (IL-4 and IFNγ). […] Shown are the changes of the relative mean fluorescence intensity (MFI) to controls. 0.2 refers to 20% MFI increase.\nB6 mice were purchased from the Jackson Laboratory and maintained in the animal facility at the Massachusetts Institute of Technology (MIT). NSG mice were purchased from the Jackson Laboratory and maintained under specific pathogen-free conditions in the animal facilities at MIT. […] The data were analyzed by FlowJo. […]"}}}
{"compound": "CC(C)(O)/C=C/C(=O)[C@](C)(O)[C@H]1[C@H](O)C[C@@]2(C)[C@@H]3CC=C4[C@@H](C=C(O)C(=O)C4(C)C)[C@]3(C)C(=O)C[C@]12C", "note": "[Cucurbitacin I]", "values": [{"measurement": "Category", "setting": "[1]", "result": "M1 (−4 for M1-activated macrophages)"}, {"measurement": "EC", "setting": "[1]; EC = concentration inducing cell morphology changes to reach the M1 or M2 Z-score cutoff, Michaelis-Menten fit, 3 independent experiments, unit of the source corrected", "result": 0.342, "unit": "µM"}, {"measurement": "Max absolute Z-value", "setting": "[1]; Max Z-score from Michaelis-Menten equation, negative = round, positive = elongated", "result": "−4.808"}, {"measurement": "development and function of tumor-associated macrophages in vitro", "setting": "[2]", "result": "inhibits"}, {"measurement": "B16F10 growth", "setting": "[3]", "result": "inhibited"}, {"measurement": "EC", "setting": "[4]; M1-activating compounds on M2-like macrophages (IL-4 plus IL-13), EC = concentration reaching Z-score cutoff", "result": 1.759, "unit": "µM"}, {"measurement": "Category", "setting": "[4]; differentiated macrophages", "result": "M1 (−4 for M1-activated macrophages)"}]}
{"compound": "CCCCCCCCCCCCC/C=C/[C@@H](O)[C@@H](N)COP(=O)(O)O", "note": "[S1P, sphingosine-1-phosphate]", "values": [{"measurement": "glycolysis", "setting": "[5]", "result": "significant increase"}]}
{"compound": "IFNγ: classic M1 stimulus", "values": [{"measurement": "cell shape induced", "setting": "[6]", "result": "round shape"}, {"measurement": "expression of M1 markers CD80 and CD86", "setting": "[7]", "result": "up-regulated"}, {"measurement": "expression of M2 markers CD206 and CD163", "setting": "[7]", "result": "suppressed"}]}
